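Following 48 hours of exposure in 96-well plates, responses at five concentrations were used to interpolate endpoints linearly. Abbreviation: GI50, concentration required for 50% inhibition of growth. TGI: total growth inhibition.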
Columns and labels:
Test in all cases: growth of human tumour cells (NCI), 48 h
HOP-62 NSCLC = system: HOP-62 NSCLC
HS 578T breast = system: HS 578T breast
SF-539 CNS = system: SF-539 CNS
SK-MEL-28 melanoma = system: SK-MEL-28 melanoma
SNB-75 CNS = system: SNB-75 CNS
K-562 leukemia = system: K-562 leukemia
OVCAR-8 ovarian = system: OVCAR-8 ovarian
HOP-92 NSCLC = system: HOP-92 NSCLC
LOX IMVI melanoma = system: LOX IMVI melanoma
T-47D breast = system: T-47D breast

SMILES	GI50 (HOP-62 NSCLC) [µM]	TGI (HOP-62 NSCLC) [µM]	GI50 (HS 578T breast) [µM]	TGI (HS 578T breast) [µM]	GI50 (SF-539 CNS) [µM]	TGI (SF-539 CNS) [µM]	GI50 (SK-MEL-28 melanoma) [µM]	TGI (SK-MEL-28 melanoma) [µM]	GI50 (SNB-75 CNS) [µM]	TGI (SNB-75 CNS) [µM]	TGI (K-562 leukemia) [µM]	TGI (OVCAR-8 ovarian) [µM]	GI50 (HOP-92 NSCLC) [µM]	TGI (HOP-92 NSCLC) [µM]	GI50 (K-562 leukemia) [µM]	GI50 (LOX IMVI melanoma) [µM]	TGI (LOX IMVI melanoma) [µM]	GI50 (OVCAR-8 ovarian) [µM]	GI50 (T-47D breast) [µM]	TGI (T-47D breast) [µM]
O=C(Nc1ccc(Br)cc1)Nc1cccc(Br)c1	7.24	> 100	> 100	> 100	15.3	> 100	4.77	> 100	10.2	63										
CC(C)(C)c1cc(C(OCCl)(C(F)(F)F)C(F)(F)F)c2c(c1)C(C(F)(F)F)(C(F)(F)F)OC21c2ccccc2C(=O)c2ccccc21						> 100		> 100		> 100	> 100	> 100								
CC(=O)OC1COC(Oc2c(C)c3c4c(c2O)[C@@H](C)CC[C@@H]4[C@@H](C)C[C@H]3C=C(C)C)C(O)C1O (stereo not given in full)	17.8	34.2	> 100	> 100			23.8	57.3			27.1	50.3	18.7	36.3	10.3	19.1	40	20.6	33.2	> 100
CN(C)CCNC(=O)c1cccc2cc3ccc4ccccc4c3nc12		0.309				0.39		0.593		0.399	> 100	0.316		0.593			0.256			
O=C(O)Cn1ccc(=O)c2c([N+](=O)[O-])cccc21		> 100		> 100		> 100		> 100		> 100	> 100	> 100								> 100
COC(=O)c1cc2ccccc2c2nc3ccccc3c(Cl)c12		> 100				> 100		> 100		> 100	> 100	> 100		> 100			> 100			
CC1(C)OC2OC(COC(=O)C(c3ccccc3)c3ccccc3)C3OC(C)(C)OC3C2O1 (stereo not given)	> 100	> 100				> 100		> 100		87.2	> 100	> 100		> 100			> 100			
O=c1[nH]c(=O)n(C2CC(O)C(O)C(CO)O2)cc1F (stereo not given)		> 100				> 100		> 100		> 100	> 100	> 100		> 100			> 100			
CCN(CCNc1ccc(C)c2sc3cc(Cl)ccc3c(=O)c12)CC(C)(C)O	3.87	16.1	5.01	21.2	5.54	24	2.09	4.34	3.31	16.8	11.7	> 100			3.19	3.07	10.3	22.5	11.8	37.5
O=C(Nc1nc2c(s1)CCc1c-2c(Br)n(Cc2ccccc2)c1Br)c1ccccc1	2.13	6.72			1.55	3.38	4.34	70.7	1.77	4.74	> 100	> 100	1.2	4.63	22.9	5.53	> 100	3.91	1.4	19.7
Nc1ncnc2c1ncn2CCOC(c1ccccc1)P(=O)(O)O (stereo not given)						> 100		> 100		> 100		> 100					> 100			
CC(C)=CC(=O)CC(=O)C(=O)NCCNC(=O)C(=O)CC(=O)C=C(C)C		> 50				> 50		> 50		> 50		> 50		> 50			> 50			
C1CCN2CC3CONC3C2C1 (stereo not given)		> 100				> 100		> 100		> 100	> 100	> 100					> 100			
CC1(C)CC(O)CC(C)(C)N1.CC1(C)CC(O)CC(C)(C)N1.CC1(C)CC(O)CC(C)(C)N1.CC1(C)CC(O)CC(C)(C)N1.Cl.[Ti]	> 100	> 100			> 100	> 100	> 100	> 100	> 100	> 100	> 100	> 100	> 100	> 100	> 100	> 100	> 100	> 100		
COc1ccc2nc(-c3ccc(O)cc3)ccc2c1		> 100				> 100		> 100		> 100	> 100	> 100		> 100			> 100			
CN1CCOCCOCCOc2ccccc2NC(=O)c2nc(cnc2N)-c2ccc(cc2)S1(=O)=O	14.7	46.2	3.56	> 100	0.0371	> 100			2.85	17.7		> 100						7.1	> 100	> 100
C1=C(c2ccccc2)C(OC2Oc3ccccc3C=C2c2ccccc2)Oc2ccccc21 (stereo not given)		> 100						> 100		> 100	> 100	> 100		> 100			> 100			
O=C1c2ccccc2-c2c1c1ccc([N+](=O)[O-])cc1c(=O)n2CCCCl	43.8	> 100					17	> 100			> 100	> 100	22.9	> 100	25.7	3.24	> 100	72.1		
C/C(CC(=O)Nc1cccc(Cl)c1C)=N\N=C(N)N		> 100				> 100		> 100		> 100	> 100	> 100		> 100			> 100			
O=c1c2cccc3cccc(c4n1CCCN=4)c32		> 100				> 100		> 100		> 100	> 100	> 100		> 100			53.5			
Nc1c(C(=O)Nc2ccccc2O)[n+]([O-])c2ccccc2[n+]1[O-]		> 100				> 100		> 100		> 100	> 100	> 100		> 100						
